Reference: patent US20250270213A1, “PI3Ka INHIBITORS” (Synnovation Therapeutics, Inc., priority 2022, published 2025)
pIC50: −log10 of the molar value.

Test system: T47D (PIK3CA H1047R) cells
Test: pS473 AKT assay with 2.5% FBS, T47D cells
Type: cell-based
Details: Homo sapiens, pSer473 AKT, DMEM with 2.5% FBS, 2 h treatment, read-out: T47D_IC50
Method: Example B. pS473 AKT Assay Protocol with 2.5% FBS
T47D (PIK3CA H1047R) cells were cultured using 10-cm petri dishes with recommended medium plus 10% fetal bovine serum. One day before the assay, cells were seeded in 96-well plates. After overnight incubation, the medium was changed to DMEM with 2.5% fetal bovine serum (FBS) and the cells were treated with different concentrations of the compounds for 2 h. Cells were then fixed using 4% paraformaldehyde at room temperature for 20 min. Aspirate 4% paraformaldehyde, and wash cells using 1× regular phosphate buffered saline 3 times, 5 min each. Aspirate any residual phosphate buffered saline and block cells using 10% goat serum containing 1% bovine serum albumin and 0.3% Triton X-100 at room temperature for 1 h. Without any additional washing, primary antibodies (rabbit anti-pSer473 AKT) were diluted using blocking buffer and added at a final volume of 50 microliter per well. Keep assay plates with primary antibodies overnight at 4° C. Wash cells using 1× regular phosphate buffered saline 3 times, 5 min each. After the final wash, incubate cells with horseradish peroxidase-conjugated secondary antibodies (goat Anti-rabbit IgG) diluted using the same blocking buffer at room temperature for 1 h. Wash cells thoroughly using 1× regular phosphate buffered saline 3 times, 5 min each. Aspirate any residual phosphate buffered saline. Add Super-Signal ELISA Pico Chemiluminescent Substrate at a final volume of 100 microliter per well. Read plates on i3x Multi-Mode Microplate Reader and calculate IC50 values using GraphPad Prism software.

pIC50, > 6.00:
Cc1cc(C(C)Nc2ccc(Cl)nc2-c2cnn(C)c2)c2c(c1)c(=O)n(C)c1nn(C3CCN(C)CC3)cc21 (centres unmarked) [Example 206, 9-(1-((6-Chloro-2-(1-methyl-1H-pyrazol-4-yl)pyridin-3-yl)amino)ethyl)-4,7-dimethyl-2-(1-methylpiperidin-4-yl)-2,4-dihydro-5H-pyrazolo[3,4-c]isoquinolin-5-one]
CCn1ncc2c3c(C(C)Nc4ccccc4N4CCn5cnnc5C4)cc(C)cc3c(=O)n(C)c21 (centres unmarked) [Compound 58, 9-(1-((2-(5,6-Dihydro-[1,2,4]triazolo[4,3-a]pyrazin-7(8H)-yl)phenyl)amino)ethyl)-3-ethyl-4,7-dimethyl-3,4-dihydro-5H-pyrazolo[3,4-c]isoquinolin-5-one]
CCn1ncc2c3c(C(C)Nc4ccccc4C(=O)O)cc(C)cc3c(=O)n(C)c21 (centres unmarked) [Compound I-18, 2-((1-(3-Ethyl-4,7-dimethyl-5-oxo-4,5-dihydro-3H-pyrazolo[3,4-c]isoquinolin-9-yl)ethyl)amino)benzoic acid]
Cc1cc(C(C)Nc2ccc(Cl)nc2-c2ncn(C)n2)c2c(c1)c(=O)n(C)c1c2cnn1C1CN(C[C@H](C)O)C1 (stereo partly drawn) [Compound 91, 9-(1-((6-chloro-2-(1-methyl-1H-1,2,4-triazol-3-yl)pyridin-3-yl)amino)ethyl)-3-(1-((S)-2-hydroxypropyl)azetidin-3-yl)-4,7-dimethyl-3,4-dihydro-5H-pyrazolo[3,4-c]isoquinolin-5-one]
Cc1cc(C(C)Nc2ccc(Cl)nc2-c2cnn(C3CN(C)C3)c2)c2c(c1)c(=O)n1c3c2cnn3CCC1 (centres unmarked) [Compound 304, 10-(1-((6-chloro-2-(1-(1-methylazetidin-3-yl)-1H-pyrazol-4-yl)pyridin-3-yl)amino)ethyl)-8-methyl-4,5-dihydro-3H,6H-2,2a,5a-triazaaceanthrylen-6-one]
CC(=O)N1CC(n2ncc3c4c(C(C)Nc5ccc(Cl)nc5-c5ccc(=O)n(C)c5)cc(C)cc4c(=O)n(C)c32)C1 (centres unmarked) [Compound 100, 3-(1-Acetylazetidin-3-yl)-9-(1-((6-chloro-1′-methyl-6′-oxo-1′,6′-dihydro-[2,3′-bipyridin]-3-yl)amino)ethyl)-4,7-dimethyl-3,4-dihydro-5H-pyrazolo[3,4-c]isoquinolin-5-one]
CCn1ncc2c3c(C(CO)Nc4ccc(Cl)nc4-c4ccncc4F)cc(C)cc3c(=O)n(C)c21 (centres unmarked) [Compound 76, 9-(1-((6-Chloro-3′-fluoro-[2,4′-bipyridin]-3-yl)amino)-2-hydroxyethyl)-3-ethyl-4,7-dimethyl-3,4-dihydro-5H-pyrazolo[3,4-c]isoquinolin-5-one]
Cc1cc(C(C)Nc2ccc(Cl)nc2-c2cnn(C)c2)c2c(c1)c(=O)n(C)c1c2cnn1C1CCN(C(=O)N(C)C)CC1 (centres unmarked) [Example 186, 4-(9-(1-((6-chloro-2-(1-methyl-1H-pyrazol-4-yl)pyridin-3-yl)amino)ethyl)-4,7-dimethyl-5-oxo-4,5-dihydro-3H-pyrazolo[3,4-c]isoquinolin-3-yl)-N,N-dimethylpiperidine-1-carboxamide]
Cc1cc(C(C)Nc2ccccc2C(=O)O)c2c(c1)c(=O)n(C)c1nc(N(C)C)ccc21 (centres unmarked) [Compound I-33, 2-[1-[3-(Dimethylamino)-5,8-dimethyl-6-oxo-benzo[c][1,8]naphthyridin-10-yl]ethylamino]benzoic acid]
Cc1cc(C(C)Nc2ccccc2C(=O)O)c2c(c1)c(=O)n(C)c1nn(C3CCOCC3)cc21 (centres unmarked) [Compound I-27, 2-((1-(4,7-Dimethyl-5-oxo-2-(tetrahydro-2H-pyran-4-yl)-4,5-dihydro-2H-pyrazolo[3,4-c]isoquinolin-9-yl)ethyl)amino)benzoic acid]
Cc1cc(C(C)Nc2ccc(Cl)nc2-c2ccc3c(c2)CN(C)C3=O)c2c(c1)c(=O)n(C)c1c2cnn1C1CCN(S(C)(=O)=O)CC1 (centres unmarked) [Example 191, 9-(1-((6-chloro-2-(2-methyl-1-oxoisoindolin-5-yl)pyridin-3-yl)amino)ethyl)-4,7-dimethyl-3-(1-(methylsulfonyl)piperidin-4-yl)-3,4-dihydro-5H-pyrazolo[3,4-c]isoquinolin-5-one]
CCn1ncc2c3c(C(C)Nc4ccc(C)nc4-c4cn[nH]c4)cc(C)cc3c(=O)n(C)c21 (centres unmarked) [Compound 53, 3-ethyl-4,7-dimethyl-9-(1-((6-methyl-2-(1H-pyrazol-4-yl)pyridin-3-yl)amino)ethyl)-3,4-dihydro-5H-pyrazolo[3,4-c]isoquinolin-5-one]
CCn1c(=O)c2cc(C)cc(C(C)Nc3ccc(Cl)nc3-c3ncn(C)n3)c2c2cn(C3CCN(C)CC3)nc21 (centres unmarked) [Example 201, 9-(1-((6-Chloro-2-(1-methyl-1H-1,2,4-triazol-3-yl)pyridin-3-yl)amino)ethyl)-4-ethyl-7-methyl-2-(1-methylpiperidin-4-yl)-2,4-dihydro-5H-pyrazolo[3,4-c]isoquinolin-5-one]
CCn1ncc2c3c(C(C)Nc4ccc(C)nc4-c4cnn(C)c4)cc(C)cc3c(=O)n(C)c21 (centres unmarked) [Compound 52, 3-Ethyl-4,7-dimethyl-9-(1-((6-methyl-2-(1-methyl-1H-pyrazol-4-yl)pyridin-3-yl)amino)ethyl)-3,4-dihydro-5H-pyrazolo[3,4-c]isoquinolin-5-one]
Cc1cc(C(C)Nc2ccc(Cl)nc2-c2ncn(C)n2)c2c(c1)c(=O)n(C)c1c2cnn1C1CCN(C)C1 (centres unmarked) [Compound 136, 9-(1-((6-chloro-2-(1-methyl-1H-1,2,4-triazol-3-yl)pyridin-3-yl)amino)ethyl)-4,7-dimethyl-3-(1-methylpyrrolidin-3-yl)-3,4-dihydro-5H-pyrazolo[3,4-c]isoquinolin-5-one]
CNC(=O)c1ccc(-c2nc(Cl)ccc2NC(C)c2cc(C)cc3c(=O)n(C)c4c(cnn4CCN4CCN(C)CC4)c23)cc1F (centres unmarked) [Example 267, 4-(6-chloro-3-((1-(4,7-dimethyl-3-(2-(4-methylpiperazin-1-yl)ethyl)-5-oxo-4,5-dihydro-3H-pyrazolo[3,4-c]isoquinolin-9-yl)ethyl)amino)pyridin-2-yl)-2-fluoro-N-methylbenzamide]
CCn1c(=O)c2cc(C)cc(C(C)Nc3ccc(Cl)nc3-c3ncn(C)n3)c2c2cnn(C3CCN(CC(C)(C)O)C3)c21 (centres unmarked) [Compound 146, 9-(1-((6-chloro-2-(1-methyl-1H-1,2,4-triazol-3-yl)pyridin-3-yl)amino)ethyl)-4-ethyl-3-(1-(2-hydroxy-2-methylpropyl)pyrrolidin-3-yl)-7-methyl-3,4-dihydro-5H-pyrazolo[3,4-c]isoquinolin-5-one]
Cc1cc(C(C)Nc2ccc(Cl)nc2-c2cnn(C)c2)c2c(c1)c(=O)n(C)c1c2cnn1CCN1CCOCC1 (centres unmarked) [Example 263, 9-[1-[[6-Chloro-2-(1-methylpyrazol-4-yl)-3-pyridyl]amino]ethyl]-4,7-dimethyl-3-(2-morpholinoethyl)pyrazolo[3,4-c]isoquinolin-5-one]
Cc1cc(C(C)Nc2ccc(Cl)nc2-c2ncn(C)n2)c2c(c1)c(=O)n(C)c1c(-c3ccnc(C)c3)ncn21 (centres unmarked) [Compound 115, 9-(1-((6-chloro-2-(1-methyl-1H-1,2,4-triazol-3-yl)pyridin-3-yl)amino)ethyl)-4,7-dimethyl-3-(2-methylpyridin-4-yl)imidazo[1,5-a]quinazolin-5(4H)-one]
CCn1ncc2c3c(C(C)Nc4ccc(Cl)nc4-c4ccc(=O)n(C)c4)cc(C)cc3c(=O)n(C)c21 (centres unmarked) [Compound 41, 9-(1-((6-chloro-1′-methyl-6′-oxo-1′,6′-dihydro-[2,3′-bipyridin]-3-yl)amino)ethyl)-3-ethyl-4,7-dimethyl-3,4-dihydro-5H-pyrazolo[3,4-c]isoquinolin-5-one]
COC(=O)N1CCC(n2ncc3c4c(C(C)Nc5ccc(Cl)nc5-c5cnn(C)c5)cc(C)cc4c(=O)n(C)c32)CC1 (centres unmarked) [Example 184, methyl 4-[9-[1-[[6-chloro-2-(1-methylpyrazol-4-yl)-3-pyridyl]amino]ethyl]-4,7-dimethyl-5-oxo-pyrazolo[3,4-c]isoquinolin-3-yl]piperidine-1-carboxylate]
Cc1cc(C(C)Nc2ccc(Cl)nc2-c2cnn(C)c2)c2c(c1)c(=O)n(C)c1nn(C3CCN(C(C)C)CC3)cc21 (centres unmarked) [Example 207, 9-(1-((6-chloro-2-(1-methyl-1H-pyrazol-4-yl)pyridin-3-yl)amino)ethyl)-2-(1-isopropylpiperidin-4-yl)-4,7-dimethyl-2,4-dihydro-5H-pyrazolo[3,4-c]isoquinolin-5-one]
Cc1cc(C(C)Nc2ccc(Cl)nc2-c2ccc3ncccc3c2)c2c(c1)c(=O)n(C)c1c2cnn1CCO (centres unmarked) [Example 246, 9-(1-((6-chloro-2-(quinolin-6-yl)pyridin-3-yl)amino)ethyl)-3-(2-hydroxyethyl)-4,7-dimethyl-3,4-dihydro-5H-pyrazolo[3,4-c]isoquinolin-5-one]
